According to patent US20090192151A1, “THERAPEUTIC AMIDES AND RELATED COMPOUNDS” (priority 2008, published 2009):

System: lashes and adjacent hairs
Assay: Clinical observation of lashes and adjacent hairs in glaucoma patients treated with bimatoprost in only one eye
Assay type: in vivo
Excerpt: In the course of treating patients having glaucoma, treatment may only be appropriate in one eye. […] The lash appearance on the lids of the treated eyes would have appeared quite attractive if it represented a bilateral phenomenon. As a result of its asymmetric nature, the long lashes on one side could be construed as disturbing from a cosmetic standpoint. A systemic examination was preformed as a result of the asymmetric phenomenon. It soon became apparent that this altered appearance was not an isolated finding.
The changes in the lashes were apparent on gross inspection in several patients once attention was focused on the issue. In those with light colored hair and lashes, the differences were only seen easily with the aid of the high magnification and lighting capabilities of the slit lamp biomicroscope. In the course of glaucoma follow-up examination, attention is generally immediately focused on the eye itself. As a result of the high power magnification needed only one eye is seen at a time and the eye is seen at a high enough power that the lashes are not in focus. At these higher powers, any lash asymmetry between the two eyes is not likely to be noticed except by careful systematic comparison of the lashes and adjacent hairs of the eyelids of the two eyes.
Observed parameters leading to the conclusion that more robust hair growth occurred in the treatment area following administration of the prostaglandin analogue were multiple. They included increased length of lashed, increased number of lashes along the normal lash line, increased thickness and luster of lashes, increased auxiliary lash-like terminal hair in transitional areas adjacent to areas of normal lash growth, increased auxiliary lash-like terminal hairs at the medial and lateral canthal area, increased pigmentation of the lashes, increased numbers, increased length, as well as increased luster, and thickness of fine hair on the skin of the adjacent lid, and finally, increased perpendicular angulation of lashes and lash-like terminal hairs.

## CCNC(=O)CCC/C=C\C[C@@H]1[C@@H](/C=C/[C@@H](O)CCc2ccccc2)[C@H](O)C[C@@H]1O [bimatoprost]
A glaucoma patient treated with bimatoprost in one eye, gross examination
  lash appearance in treated eye versus non-treated eye: longer, thicker, and fuller in the treated eye than in the non-treated eye
All patients taking the drug on a unilateral basis for longer than 6 months
  differences in the lashes and adjacent hairs of treated side: Definite differences could be identified to varying degrees
Many subjects, lash length, number, thickness, luster, pigmentation, auxiliary terminal hairs
  hair growth, conclusion from multiple parameters of hair appearance in treated versus control areas: hair growth is stimulated
